One test concerns the target T1, PI3K-delta (Homo sapiens, UniProt O00329).
T1 construct: purchased Upstate; Millipore 14-604
Nature of the test: HTRF PI3K biochemical assay, delta isoform. Particulars: form screened (neutral or TFA salt) given, read-out: PI3Kdelta IC50. On the technique in general: Time-resolved FRET reads energy transfer from a long-lived donor to a nearby acceptor.

The next test deals with T2, PI3K-alpha (Homo sapiens, UniProt P42336).
T2 construct: purchased Upstate; Millipore 14-602
Put plainly: HTRF PI3K biochemical assay, alpha isoform. Particulars: ratio PI3K-alpha IC50 value / PI3K-delta IC50 value.

Bounds are passed on as bounds.

T1 sequence (O00329 whole entry): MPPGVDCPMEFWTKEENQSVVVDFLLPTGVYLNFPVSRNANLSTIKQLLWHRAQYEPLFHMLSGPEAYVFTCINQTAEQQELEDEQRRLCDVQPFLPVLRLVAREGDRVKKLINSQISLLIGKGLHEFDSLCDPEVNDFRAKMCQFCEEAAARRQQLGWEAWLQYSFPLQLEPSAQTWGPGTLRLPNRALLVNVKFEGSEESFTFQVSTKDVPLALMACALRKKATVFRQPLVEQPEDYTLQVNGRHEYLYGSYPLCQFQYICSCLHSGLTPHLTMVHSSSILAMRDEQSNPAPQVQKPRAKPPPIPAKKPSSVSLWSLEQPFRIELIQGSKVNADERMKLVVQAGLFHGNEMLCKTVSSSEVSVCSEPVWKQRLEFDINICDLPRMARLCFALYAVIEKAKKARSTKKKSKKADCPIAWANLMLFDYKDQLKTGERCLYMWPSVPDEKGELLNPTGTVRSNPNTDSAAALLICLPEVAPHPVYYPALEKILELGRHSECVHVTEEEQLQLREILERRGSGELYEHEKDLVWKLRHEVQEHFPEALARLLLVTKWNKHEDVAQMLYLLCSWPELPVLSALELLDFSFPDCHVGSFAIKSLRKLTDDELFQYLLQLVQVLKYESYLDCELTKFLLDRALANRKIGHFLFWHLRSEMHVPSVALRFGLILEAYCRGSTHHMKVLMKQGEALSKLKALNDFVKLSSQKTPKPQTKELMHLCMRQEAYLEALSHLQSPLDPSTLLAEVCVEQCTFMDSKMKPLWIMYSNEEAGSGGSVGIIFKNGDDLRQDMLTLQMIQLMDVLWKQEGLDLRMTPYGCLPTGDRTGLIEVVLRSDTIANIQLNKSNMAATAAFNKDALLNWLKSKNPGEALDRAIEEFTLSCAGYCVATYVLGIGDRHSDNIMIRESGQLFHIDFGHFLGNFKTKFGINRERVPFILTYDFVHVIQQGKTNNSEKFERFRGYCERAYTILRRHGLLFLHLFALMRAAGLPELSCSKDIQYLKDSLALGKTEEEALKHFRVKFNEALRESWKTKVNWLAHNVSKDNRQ
T1 sequence (P27986 whole entry partner): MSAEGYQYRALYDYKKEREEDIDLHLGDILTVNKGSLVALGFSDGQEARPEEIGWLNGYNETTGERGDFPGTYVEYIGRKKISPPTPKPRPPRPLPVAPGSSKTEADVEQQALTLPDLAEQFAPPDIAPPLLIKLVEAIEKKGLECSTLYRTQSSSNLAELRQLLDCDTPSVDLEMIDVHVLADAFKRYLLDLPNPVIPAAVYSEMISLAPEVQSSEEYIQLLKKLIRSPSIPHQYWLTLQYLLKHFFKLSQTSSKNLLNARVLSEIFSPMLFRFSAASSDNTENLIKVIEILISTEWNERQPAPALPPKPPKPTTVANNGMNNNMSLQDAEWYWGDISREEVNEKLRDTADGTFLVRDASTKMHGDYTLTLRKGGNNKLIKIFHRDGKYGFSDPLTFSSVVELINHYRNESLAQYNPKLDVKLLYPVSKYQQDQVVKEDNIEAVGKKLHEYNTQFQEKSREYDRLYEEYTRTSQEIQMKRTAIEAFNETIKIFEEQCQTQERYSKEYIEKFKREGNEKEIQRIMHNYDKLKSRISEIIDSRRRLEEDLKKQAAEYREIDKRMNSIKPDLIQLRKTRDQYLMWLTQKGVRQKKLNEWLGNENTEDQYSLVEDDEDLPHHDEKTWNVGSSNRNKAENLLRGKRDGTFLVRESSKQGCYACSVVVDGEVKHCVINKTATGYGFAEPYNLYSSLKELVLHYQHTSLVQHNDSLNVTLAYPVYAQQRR
T2 sequence (P42336 whole entry): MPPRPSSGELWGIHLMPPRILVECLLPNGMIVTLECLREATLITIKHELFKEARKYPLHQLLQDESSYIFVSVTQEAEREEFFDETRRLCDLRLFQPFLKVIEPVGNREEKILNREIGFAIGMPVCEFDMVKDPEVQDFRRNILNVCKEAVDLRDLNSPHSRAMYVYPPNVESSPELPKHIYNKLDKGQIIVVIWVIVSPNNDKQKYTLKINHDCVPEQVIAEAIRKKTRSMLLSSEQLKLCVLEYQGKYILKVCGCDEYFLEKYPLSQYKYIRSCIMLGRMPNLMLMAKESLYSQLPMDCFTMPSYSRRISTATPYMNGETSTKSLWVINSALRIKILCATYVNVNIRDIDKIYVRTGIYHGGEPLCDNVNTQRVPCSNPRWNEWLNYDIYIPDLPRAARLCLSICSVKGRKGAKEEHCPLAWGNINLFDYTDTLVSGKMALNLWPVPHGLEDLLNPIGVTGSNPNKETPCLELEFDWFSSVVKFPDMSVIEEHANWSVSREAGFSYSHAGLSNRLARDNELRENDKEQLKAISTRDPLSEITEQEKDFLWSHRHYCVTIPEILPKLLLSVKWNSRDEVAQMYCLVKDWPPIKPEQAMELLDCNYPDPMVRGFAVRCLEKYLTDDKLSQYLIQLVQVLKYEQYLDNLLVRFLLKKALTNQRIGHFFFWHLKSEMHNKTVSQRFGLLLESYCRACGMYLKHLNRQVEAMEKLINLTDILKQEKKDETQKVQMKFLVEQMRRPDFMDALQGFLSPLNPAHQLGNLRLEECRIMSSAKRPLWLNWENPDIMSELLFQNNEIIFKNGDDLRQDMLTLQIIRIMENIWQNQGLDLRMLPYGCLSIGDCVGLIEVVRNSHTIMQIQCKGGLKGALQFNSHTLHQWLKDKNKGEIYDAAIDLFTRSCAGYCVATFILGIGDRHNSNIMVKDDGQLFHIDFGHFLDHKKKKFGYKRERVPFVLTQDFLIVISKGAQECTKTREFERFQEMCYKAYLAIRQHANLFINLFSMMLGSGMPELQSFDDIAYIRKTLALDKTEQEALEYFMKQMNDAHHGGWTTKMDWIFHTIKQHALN
T2 sequence (P27986 whole entry partner): as the sequence (P27986 whole entry partner) above
Description for PI3K-delta: HTRF PI3K Biochemical Assay to Measure Intrinsic Potency of Compound Inhibitors
This assay was developed and further optimized from a kit produced by Upstate (Millipore catalog #33-047) and has been configured for HTS and SAR screening. Briefly, this procedure exploits the exquisite specificity and high affinity binding of enzyme reaction substrate phosphatidyl(3,4,5)triphosphate (PIP3) to the GRP1 pleckstrin homology (PH) domain to generate the signal. In the absence of PIP3, an HTRF (Homogeneous Time-Resolved Fluorescence energy transfer) complex is formed consisting of europium (Eu)-labeled anti-GST, GSTtagged GRP1-PH domain, biotin-PIP3 and streptavidin conjugated APC. The native PIP3 produced by PI3-Kinase activity disrupts in a competitive manner the biotin-PIP3 from the PH domain, resulting in the loss of energy transfer (HTRF complex) and a decrease in the signal. The format of this assay is the same for all 4 isoforms of PI3K; the differences lie in the concentration of enzyme used to achieve robust assay window. The alpha, beta, and delta assays are run at 0.5, 1, and 0.3 nM enzymes and the gamma assay is run at 5 nM enzyme. The ATP concentration is 100 uM in the alpha, beta, and delta assays and 50 uM ATP in the gamma assay. All reactions are run at 5 uM PIP2.
Compounds are serially diluted (3-fold in 100% DMSO) across a 384-well polypropylene source plated from column 3 to column 12 and column 13 to column 22, to yield 10 concentration dose response for each test compound. Columns 1, 2, 23 and 24 contain either only DMSO or pharmacological known control inhibitor.
The PI3-Kinase biochemical assay was optimized using the HTRF kit provided by Upstate (Millipore). The assay kit contains six reagents: 1) 4× Reaction Buffer; 2) native PIP2 (substrate); 3) Stop (EDTA); 4) Detection Mix A (Streptavidin-APC); 5) Detection Mix B (Eu-labeled Anti-GST plus GST-tagged PH-domain); 6) Detection Mix C.
PI3Kinase Reaction Buffer is prepared by dilution the stock 1:4 with de-ionized water. […] Enzyme addition and compound pre-incubation are initiated by the addition of 1.25 ul of PI3K (at twice its final concentration) in the 1× reaction buffer to all wells using a BioRaptor. Plates are incubated at room temperature for 15 minutes. Reactions are initiated by addition of 1.25 ul of 2× substrate solution (PIP2 and ATP in 1× reaction buffer) using BioRaptor. Plates are incubated in humidified chamber at room temperature for one hour. Reactions are quenched by addition of 0.625 uL of stop solution to all wells using the BioRaptor. The quenched reactions are then processed to detect product formation by adding 0.625 uL of Detection Solution to all wells using the BioRaptor (Detection mix C, Detection Mix A, and Detection Mix B combined together in an 18:1:1 ratio prepared 2 hours prior to use).
The loss of the HTRF signal is due to the displacement of biotinylated-PIP3 from the PH domain by the PI3K-dependent conversion of PIP2 to PIP3. This loss of signal is nonlinear with respect to both increasing product and time. This non-linear detection will impact accuracy of IC50 calculations; therefore, there is a need for a correction factor to obtain more accurate IC50 values. This correction is derived from a PIP3 standard curve run in a separate assay plate. All data were calculated using the ratio of acceptor (APC) to donor (Europium) fluorescence in each well of the assay plate. […] An IC50 was then calculated fitting the % inhibition data to the equation: % inhibition=min+(Max−min)/1+([inhibitor]/IC50)^n) where min is the % inhibition with inhibitor, max is the signal in DMSO control, and n is the Hill slope.

On to `CCn1c(-c2cnc(C)nc2)nc2c(N[C@H]3CCN(C(=O)NC(C)C)C3)ncnc21` [Compound 12-19, (3S)-3-{[9-ethyl-8-(2-methylpyrimidin-5-yl)-9H-purin-6-yl]amino}-N-(1-methylethyl)pyrrolidine-l-carboxamide], for which, on PI3K-delta, the IC50 is 0.013 µM. The “Selectivity versus PI3Kalpha” value on PI3K-alpha was above 10.

For `CCn1c(-c2cnc(C)nc2)nc2c(N[C@H]3C[C@H](CO)N(C(=O)OC(C)(C)C)C3)ncnc21` [Compound 1-20, tert-butyl (2R,4S)-4-{[9-ethyl-8-(2-methylpyrimidin-5-yl)-9H-purin-6-yl]amino}-2-(hydroxymethyl)pyrrolidine-1-carboxylate], the IC50 on PI3K-delta was 0.012 µM. Besides, the “Selectivity versus PI3Kalpha” value on PI3K-alpha was above 10.

Consider `CCn1c(-c2cnc(C)nc2)nc2c(N[C@H]3CCN(C(=O)N4CC[C@H](F)C4)C3)ncnc21` [Compound 12-13, 9-ethyl-N-[(3S)-1-{[(3S)-3-fluoropyrrolidin-1-yl]carbonyl}pyrrolidin-3-yl]-8-(2-methylpyrimidin-5-yl)-9H-purin-6-amine], for which, at PI3K-delta, the IC50 is 0.0017 µM. The “Selectivity versus PI3Kalpha” value at PI3K-alpha is listed as above 10.

Regarding `CCn1c(-c2cnc(C)nc2)nc2c(N[C@H]3CCN(C(=O)N4CCOCC4)C3)ncnc21` [Compound 12-4, 9-ethyl-8-(2-methylpyrimidin-5-yl)-N-[(3S)-1-(morpholin-4-ylcarbonyl)pyrrolidin-3-yl]-9H-purin-6-amine], the IC50 on PI3K-delta was determined as 0.0045 µM. The “Selectivity versus PI3Kalpha” value at PI3K-alpha was above 10.

As for `CCn1c(-c2cnc(C)nc2)nc2c(N[C@H]3CCN(C(=O)C4CC4)[C@@H]3C)ncnc21` [Compound 2-94, N-[(2R,3S)-1-(cyclopropylcarbonyl)-2-methylpyrrolidin-3-yl]-9-ethyl-8-(2-methylpyrimidin-5-yl)-9H-purin-6-amine], at PI3K-delta, the IC50 was below 0.001 µM. Besides, on PI3K-alpha, the “Selectivity versus PI3Kalpha” value is recorded as above 10.

Consider `CCn1c(C(=O)NC(C)(C)C)nc2c(N[C@H]3CCN(C(=O)C4CC4)C3)ncnc21` [Compound 6-16, N-tert-butyl-6-{[(3S)-1-(cyclopropylcarbonyl)pyrrolidin-3-yl]amino}-9-ethyl-9H-purine-8-carboxamide], for which the IC50 at PI3K-delta was determined as 0.02 µM. Besides, the “Selectivity versus PI3Kalpha” value at PI3K-alpha is reported as above 10.

As to `CCCN1CC(Nc2ncnc3c2nc(-c2cnc(C)nc2)n3CC)CCC1=O` (racemic) [Compound 14-5, 5(S and R)-{[9-ethyl-8-(2-methylpyrimidin-5-yl)-9H-purin-6-yl]amino}-1-propylpiperidin-2-one], the IC50 on PI3K-delta turned out to be 0.021 µM. Further, the “Selectivity versus PI3Kalpha” value at PI3K-alpha is on record as above 10.

For the compound `CCn1c(C#Cc2cncnc2)nc2c(N[C@H]3CCN(C(=O)C4CC4)C3)ncnc21` [Compound 16-2, N-[(3S)-1-(cyclopropylcarbonyl)pyrrolidin-3-yl]-9-ethyl-8-(pyrimidin-5-ylethynyl)-9H-purin-6-amine], the IC50 on PI3K-delta was 0.02 µM. Moreover, the “Selectivity versus PI3Kalpha” value at PI3K-alpha is above 10.

As to `CCn1c(CC2CC2)nc2c(N[C@H]3CCN(C(=O)C4CC4)C3)ncnc21` [Compound 7-1, N-[(3S)-1-(cyclopropylcarbonyl)pyrrolidin-3-yl]-8-(cyclopropylmethyl)-9-ethyl-9H-purin-6-amine], the IC50 on PI3K-delta is 0.047 µM. Moreover, the “Selectivity versus PI3Kalpha” value at PI3K-alpha is given as above 10.

As for `CCn1c(C(=O)NCC(F)(F)F)nc2c(N[C@H]3CCN(c4ccccn4)C3)ncnc21` [Compound 6-10, 9-ethyl-6-{[(3S)-1-pyridin-2-ylpyrrolidin-3-yl]amino}-N-(2,2,2-trifluoroethyl)-9H-purine-8-carboxamide], on PI3K-delta, the IC50 amounted to 0.016 µM. For the same compound, at PI3K-alpha, the “Selectivity versus PI3Kalpha” value is given as above 10.

Take `CCC(=O)N1CC[C@H](Nc2ncnc3c2nc(-c2cnc(OC)c(C)c2)n3C)C1` [Compound 2-12, (S)-1-(3-((8-(6-methoxy-5-methylpyridin-3-yl)-9-methyl-9H-purin-6-yl)amino)pyrrolidin-1-yl)propan-1-one]: at PI3K-delta, the IC50 stood at 0.0035 µM. Moreover, the “Selectivity versus PI3Kalpha” value at PI3K-alpha was above 10.

With `CCn1c(-c2cnc(C)nc2)nc2c(N[C@H]3CCN(c4nccc5ccccc45)C3)ncnc21` [Compound 4-9, 9-ethyl-N-[(3S)-1-isoquinolin-1-ylpyrrolidin-3-yl]-8-(2-methylpyrimidin-5-yl)-9H-purin-6-amine], the IC50 at PI3K-delta came out at 0.0066 µM. Further, the “Selectivity versus PI3Kalpha” value on PI3K-alpha is above 10.

Consider `CCn1c(N(C)CC(C)C)nc2c(N[C@H]3CCN(C(=O)C4CC4)C3)ncnc21` [Compound 8-4, cyclopropyl[(3S)-3-({9-ethyl-8-[methyl(2-methylpropyl)amino]-9H-purin-6-yl}amino)pyrrolidin-1-yl]methanone], for which, on PI3K-delta, the IC50 is 0.1 µM. Also, on PI3K-alpha, the “Selectivity versus PI3Kalpha” value was above 10.

For `CCn1c(-c2cnc(C)nc2)nc2c(N[C@H]3CCN(C(=O)NCc4ccco4)C3)ncnc21` [Compound 12-21, (3S)-3-{[9-ethyl-8-(2-methylpyrimidin-5-yl)-9H-purin-6-yl]amino}-N-(furan-2-ylmethyl)pyrrolidine-1-carboxamide], the IC50 at PI3K-delta worked out at 0.007 µM. Also, on PI3K-alpha, the “Selectivity versus PI3Kalpha” value is on record as above 10.

For the compound `CCn1c(C(=O)Nc2ccccn2)nc2c(N[C@H]3CCN(C(=O)C4CC4)C3)ncnc21` [Compound 6-20, 6-{[(3S)-1-(cyclopropylcarbonyl)pyrrolidin-3-yl]amino}-9-ethyl-N-pyridin-2-yl-9H-purine-8-carboxamide], the IC50 at PI3K-delta is 0.023 µM. For the same compound, on PI3K-alpha, the “Selectivity versus PI3Kalpha” value is above 10.

As to `CCn1c(-c2cnc(C)nc2)nc2c(NC3CCN(C(=O)c4cnco4)C3)ncnc21` (stereo in doubt) [Compound 2-76, (R)-(3-((9-ethyl-8-(2-methylpyrimidin-5-yl)-9H-purin-6-yl)amino)pyrrolidin-1-yl)(oxazol-5-yl)methanone], at PI3K-delta, the IC50 is 0.0031 µM. At PI3K-alpha, the “Selectivity versus PI3Kalpha” value is on record as above 10.

As to `CCC(=O)N1CC[C@H](Nc2ncnc3c2nc(CC(C)C)n3C)C1` [Compound 7-3, 9-methyl-8-(2-methylpropyl)-N-[(3S)-1-propanoylpyrrolidin-3-yl]-9H-purin-6-amine], the IC50 at PI3K-delta is 0.14 µM. Besides, at PI3K-alpha, the “Selectivity versus PI3Kalpha” value is listed as above 10.

Regarding `CCC(=O)N1CC[C@H](Nc2ncnc3c2nc(-c2ccc4[nH]ncc4c2)n3C)C1` [Compound 3-3, (S)-1-(3-((8-(1H-indazol-5-yl)-9-methyl-9H-purin-6-yl)amino)pyrrolidin-1-yl)propan-1-one], at PI3K-delta, the IC50 came out at 0.0043 µM. Also, on PI3K-alpha, the “Selectivity versus PI3Kalpha” value is given as above 10.

For `CCn1c(-c2cnc(C)nc2)nc2c(N[C@H]3CCN(C(=O)[C@H]4CCOC4)C3)ncnc21` [Compound 2-41, 9-ethyl-8-(2-methylpyrimidin-5-yl)-N-{(3S)-1-[(3S)-tetrahydrofuran-3-ylcarbonyl]pyrrolidin-3-yl}-9H-purin-6-amine], the IC50 at PI3K-delta amounted to 0.0043 µM. The “Selectivity versus PI3Kalpha” value on PI3K-alpha is recorded as above 10.

Turning to `CCn1c(-c2cnc(C)nc2)nc2c(NC3CN(C(=O)C4CC45CCCCC5)CC3C)ncnc21` (single isomer, unassigned) [Compound 2-88, 9-ethyl-8-(2-methylpyrimidin-5-yl)-N-[(3S,4R or 3R,4S)-4-methyl-1-((S and R)-spiro[2.5]oct-1-ylcarbonyl)pyrrolidin-3-yl]-9H-purin-6-amine], at PI3K-delta, the IC50 is below 0.001 µM. The “Selectivity versus PI3Kalpha” value on PI3K-alpha is given as above 10.

As for `Cc1ncc(-c2nc3c(N[C@H]4CCN(C(=O)C5CC5)C4)ncnc3n2C)cn1` [Compound 3-23, N-[(3S)-1-(cyclopropylcarbonyl)pyrrolidin-3-yl]-9-methyl-8-(2-methylpyrimidin-5-yl)-9H-purin-6-amine], the IC50 on PI3K-delta is 0.0054 µM. Also, the “Selectivity versus PI3Kalpha” value on PI3K-alpha is given as above 10.

As to `CCC(=O)N1CC[C@H](Nc2ncnc3c2nc(-c2ccc(OC)c(F)c2)n3C)C1` [Compound 3-10, 8-(3-fluoro-4-methoxyphenyl)-9-methyl-N-[(3S)-1-propanoylpyrrolidin-3-yl]-9H-purin-6-amine], the IC50 on PI3K-delta stood at 0.0018 µM. Further, at PI3K-alpha, the “Selectivity versus PI3Kalpha” value is reported as above 10.

For the compound `CCn1c(C(=O)N[C@H]2CC[C@H](O)CC2)nc2c(N[C@H]3CCN(C(=O)C4CC4)C3)ncnc21` [Compound 6-7, 6-{[(3S)-1-(cyclopropylcarbonyl)pyrrolidin-3-yl]amino}-9-ethyl-N-(trans-4-hydroxycyclohexyl)-9H-purine-8-carboxamide], the IC50 on PI3K-delta was determined as 0.019 µM. Besides, on PI3K-alpha, the “Selectivity versus PI3Kalpha” value is recorded as above 10.

Consider `CCn1c(-c2cnc(C)nc2)nc2c(N[C@H]3CCN(C(=O)C(C)(C)N)C3)ncnc21` [Compound 2-80, N-[(3S)-1-(2-amino-2-methylpropanoyl)pyrrolidin-3-yl]-9-ethyl-8-(2-methylpyrimidin-5-yl)-9H-purin-6-amine], for which the IC50 on PI3K-delta stood at 0.061 µM. Further, the “Selectivity versus PI3Kalpha” value on PI3K-alpha is above 10.

Consider `CCn1c(-c2cnc(C)nc2)nc2c(N[C@H]3CCN(C(=O)[C@@H]4CCOC4)C3)ncnc21` [Compound 2-40, 9-ethyl-8-(2-methylpyrimidin-5-yl)-N-{(3S)-1-[(3R)-tetrahydrofuran-3-ylcarbonyl]pyrrolidin-3-yl}-9H-purin-6-amine], for which the IC50 on PI3K-delta was found to be 0.0016 µM. In addition, at PI3K-alpha, the “Selectivity versus PI3Kalpha” value is above 10.

`CCn1c(-c2cnc(C)nc2)nc2c(N[C@H]3CCN(C(=O)C4(COC)CC4)C3)ncnc21` [Compound 2-61, 9-ethyl-N-[(3S)-1-{[1-(methoxymethyl)cyclopropyl]carbonyl}pyrrolidin-3-yl]-8-(2-methylpyrimidin-5-yl)-9H-purin-6-amine]: at PI3K-delta, the IC50 was determined as 0.023 µM. Also, the “Selectivity versus PI3Kalpha” value on PI3K-alpha is given as above 10.

`CCn1c(-c2cnc(C)nc2)nc2c(N[C@H]3CCCN(C(=O)C4CC4)C3)ncnc21` [Compound 2-28, N-[(3S)-1-(cyclopropylcarbonyl)piperidin-3-yl]-9-ethyl-8-(2-methylpyrimn-5-yl)-9H-purin-6-amine]: the IC50 at PI3K-delta was found to be 0.015 µM. Also, the “Selectivity versus PI3Kalpha” value at PI3K-alpha is above 10.

Turning to `CCNC(=O)N1CCC[C@H](Nc2ncnc3c2nc(-c2cnn(CC)c2C)n3C)C1` [Compound 12-1, (3S)-N-ethyl-3-{[8-(1-ethyl-5-methyl-1H-pyrazol-4-yl)-9-methyl-9H-purin-6-yl]amino}piperidine-1-carboxamide], the IC50 at PI3K-delta turned out to be 0.03 µM. The “Selectivity versus PI3Kalpha” value on PI3K-alpha is listed as above 10.

The values are drawn from patent US9938281B2 (Merck Sharp & Dohme Corp., priority 2012, dated 2018).
